{
  "source": "paper PMC12084062",
  "about": "“Integrating in vitro and in silico approaches for exploring antidiabetic potential of dimethyl and thiomethyl indolinone derivatives” (PLOS One, 2025)",
  "format_in_all_cases": "biochemical",
  "key": {"[1]": {"test_system": "protein glycation", "assay": "Protein glycation assay", "conditions": "in vitro", "experimental": "Briefly, 50 µl of protein solution in distil water was added to 10 µl of glyceraldehyde solution in black microplates. The plates were sealed and incubated at 37 °C for 24 h. After incubation, test compound solutions were then added. Blank containing distilled water served as a negative control (untreated), while Rutin as a positive control. The fluorescence was measured at 370 nm (excitation), and 440 nm (emission). The percentage inhibition was calculated using the following formula:\nPercentinhibition=1−fluorescenceoftestwell/fluoresecenceofnegativecontrolx100"}, "[2]": {"target": "human recombinant DPP-IV enzyme (Homo sapiens, UniProt P27487)", "sequence (P27487 whole entry)": "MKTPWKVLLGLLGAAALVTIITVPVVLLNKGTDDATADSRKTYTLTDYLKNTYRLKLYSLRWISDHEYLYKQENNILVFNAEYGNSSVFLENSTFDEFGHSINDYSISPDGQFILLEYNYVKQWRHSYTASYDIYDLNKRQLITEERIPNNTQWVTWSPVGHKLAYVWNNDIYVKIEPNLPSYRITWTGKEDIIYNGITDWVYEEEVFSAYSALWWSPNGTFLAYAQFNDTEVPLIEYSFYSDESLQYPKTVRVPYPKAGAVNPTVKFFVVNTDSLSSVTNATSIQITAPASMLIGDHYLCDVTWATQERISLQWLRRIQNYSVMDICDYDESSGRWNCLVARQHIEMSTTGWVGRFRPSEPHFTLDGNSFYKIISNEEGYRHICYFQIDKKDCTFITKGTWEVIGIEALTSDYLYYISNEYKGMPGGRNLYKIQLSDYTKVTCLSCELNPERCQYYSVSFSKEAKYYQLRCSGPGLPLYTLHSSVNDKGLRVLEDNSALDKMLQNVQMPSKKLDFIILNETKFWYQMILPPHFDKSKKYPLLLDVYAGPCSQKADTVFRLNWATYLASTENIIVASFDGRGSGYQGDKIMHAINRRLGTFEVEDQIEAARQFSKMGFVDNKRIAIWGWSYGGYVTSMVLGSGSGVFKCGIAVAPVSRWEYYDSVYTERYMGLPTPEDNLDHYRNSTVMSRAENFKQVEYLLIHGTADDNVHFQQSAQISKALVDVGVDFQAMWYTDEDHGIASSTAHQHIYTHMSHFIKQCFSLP", "assay": "DPP-IV inhibition assay", "conditions": "in vitro; read-out: IC50 against DPP-IV (converted)", "experimental": "The assay was carried out according to the established method with slight modification. Various concentrations of the synthesized compounds were added to human recombinant DPP-IV enzyme solution in respective wells of a 96-well plate. After incubation, pNA substrate (Gly-Pro-pNA) dissolved in Tris buffer was added to initiate the reaction and further incubated. After incubation, acetic acid solution was added to stop the reaction and the absorbance was recorded. The percentage inhibition was calculated by using the following equation:\nPercentinhibition=1−(absorbanceofthetestwell/absorbanceoftheuntreatedcontrol)x100"}, "[3]": {"test_system": "α-amylase", "assay": "In vitro α-amylase inhibition", "conditions": "for maximum inhibition of α-amylase: at 1000 μg/mL; for IC50 against α-amylase: in vitro", "experimental": "The standard protocol of in vitro α-amylase inhibition was performed according to Naeem et al. 70 µL of a 50 mM phosphate buffer (pH 6.0) were combined with 100 µL of the reaction solution. […] (0.057 units) of an enzyme, and 50 µL of the compound being examined was added to the solution. After being thoroughly blended, a 10-minute pre-incubation at 25 °C was carried out. The absorbance of the resulting mixture was measured at a wavelength of 400 nm. Further, a solution equal to 10 µL a 0.5 mM concentration of p-nitrophenyl glucopyranoside was added to the solution, and re-incubation carried out at a 25 °C temperature. The absorbance of the solution was measured at a wavelength of 400 nm after incubation."}},
  "note": "Where “and” joins values, the source holds several entries; their conditions need not be identical. Equal entries are not always repeated.",
  "data": [
    {"compound": "C[C@@H]1O[C@@H](OC[C@H]2O[C@@H](Oc3c(-c4ccc(O)c(O)c4)oc4cc(O)cc(O)c4c3=O)[C@H](O)[C@@H](O)[C@@H]2O)[C@H](O)[C@H](O)[C@H]1O", "note": "[Rutin, reference compound]", "values": [
      {"measurement": "IC50 against protein glycation", "setting": "[1]", "result": 20.780, "unit": "µg/mL"}
    ]},
    {"compound": "Cc1ccc(/C=C2/C(=O)Nc3cc(Cl)ccc32)c(C)c1", "note": "[Compound 1, (E)-3-(2,4-Dimethylbenzylidene)-6-chloroindolin-2-one]", "values": [
      {"measurement": "IC50", "setting": "[2]", "result": 110, "unit": "µM"},
      {"measurement": "maximum inhibition of α-amylase", "setting": "[3]", "result": 80, "unit": "%"},
      {"measurement": "IC50 against α-amylase", "setting": "[3]", "result": 32.917, "unit": "µg/mL"},
      {"measurement": "IC50 against protein glycation", "setting": "[1]", "result": 210.592, "unit": "µg/mL"}
    ]},
    {"compound": "CSc1ccc(/C=C2/C(=O)Nc3cc(Cl)ccc32)cc1", "note": "[Compound 2, (E)-3-(4-(Methylthio)benzylidene)-6-chloroindolin-2-one]", "values": [
      {"measurement": "IC50", "setting": "[2]", "result": 156, "unit": "µM"},
      {"measurement": "maximum inhibition of α-amylase", "setting": "[3]", "result": 75, "unit": "%"},
      {"measurement": "IC50 against α-amylase", "setting": "[3]", "result": "42.691 µg/mL and 42.69 µg/mL"},
      {"measurement": "IC50 against protein glycation", "setting": "[1]", "result": 341.551, "unit": "µg/mL"}
    ]}
  ]
}
